Several values for one entry are separate records, joined by “and”; a condition that tells them apart may be missing. Equal entries are not always repeated. ± gives the expanded uncertainty stated by the source.
What was measured:
[1] = Molar enthalpy of transition or fusion; settings: Crystal; DSC
[2] = for vapor or sublimation pressure: Closed cell (Static) method; for Normal melting temperature: DTA

COC(=O)c1ccccn1 [methyl 2-pyridinecarboxylate]
Settings	Molar enthalpy of transition or fusion [kcal/mol]
[1]	4.02 ± 0.0956

vapor or sublimation pressure, [2]
Settings	Crystal	Liquid
273.21 K	–	0.00051 ± 9.4e-05 kPa and 0.000505 ± 9.4e-05 kPa
278.18 K	–	0.00086 ± 0.0001 kPa and 0.000856 ± 0.0001 kPa
278.2 K	0.000582 ± 9.6e-05 kPa and 0.00058 ± 9.6e-05 kPa	–
280.67 K	0.000793 ± 0.0001 kPa	–
280.68 K	0.000794 ± 0.0001 kPa	–
283.15 K	0.001087 ± 0.00011 kPa	0.001403 ± 0.00011 kPa
283.16 K	0.001086 ± 0.00011 kPa	0.001399 ± 0.00011 kPa
285.65 K	0.001476 ± 0.00011 kPa and 0.001472 ± 0.00011 kPa	–
288.13 K	–	0.002242 ± 0.00013 kPa
288.14 K	0.001988 ± 0.00013 kPa	0.002246 ± 0.00013 kPa
288.15 K	0.001989 ± 0.00013 kPa	–
290.63 K	0.002681 ± 0.00015 kPa	–
290.65 K	0.002682 ± 0.00015 kPa	–
293.12 K	–	0.00357 ± 0.00017 kPa
293.13 K	–	0.003566 ± 0.00017 kPa
298.15 K	–	0.005628 ± 0.00024 kPa and 0.005601 ± 0.00024 kPa
303.15 K	–	0.008522 ± 0.00035 kPa and 0.008506 ± 0.00035 kPa
308.08 K	–	0.0128 ± 0.00051 kPa
308.11 K	–	0.01279 ± 0.00051 kPa
313.12 K	–	0.01919 ± 0.00061 kPa
313.13 K	–	0.01916 ± 0.00061 kPa
318.09 K	–	0.02771 ± 0.00074 kPa and 0.02763 ± 0.00074 kPa
323.05 K	–	0.03968 ± 0.00092 kPa
328.04 K	–	0.05628 ± 0.0012 kPa and 0.05632 ± 0.0012 kPa
333.01 K	–	0.0787 ± 0.0015 kPa
333.02 K	–	0.07876 ± 0.0015 kPa
337.99 K	–	0.1088 ± 0.002 kPa
340.47 K	–	0.127 ± 0.0023 kPa

Settings	Normal melting temperature [°C]
[2], Crystal	16.1 ± 0.5

COC(=O)c1ccncc1 [methyl 4-pyridinecarboxylate]
Settings	Molar enthalpy of transition or fusion [kcal/mol]
[1]	3.49 ± 0.167

[2], Liquid
Settings	vapor or sublimation pressure
273.26 K	0.002588 ± 0.00014 kPa
275.74 K	0.003349 ± 0.00016 kPa and 0.003323 ± 0.00016 kPa
278.22 K	0.004243 ± 0.00019 kPa
278.23 K	0.004253 ± 0.00019 kPa
280.71 K	0.005373 ± 0.00023 kPa and 0.005383 ± 0.00023 kPa
283.19 K	0.006753 ± 0.00028 kPa
285.66 K	0.008443 ± 0.00034 kPa
288.16 K	0.01054 ± 0.00042 kPa
290.65 K	0.01308 ± 0.00051 kPa
293.15 K	0.01615 ± 0.00056 kPa
293.16 K	0.01617 ± 0.00056 kPa
295.65 K	0.0199 ± 0.00062 kPa
298.13 K	0.02427 ± 0.00069 kPa
298.14 K	0.02428 ± 0.00069 kPa
300.63 K	0.0296 ± 0.00077 kPa and 0.02961 ± 0.00077 kPa
303.12 K	0.03595 ± 0.00087 kPa
303.13 K	0.03597 ± 0.00087 kPa
305.62 K	0.04347 ± 0.00098 kPa
305.63 K	0.04348 ± 0.00098 kPa
308.09 K	0.05219 ± 0.0011 kPa
310.59 K	0.06266 ± 0.0013 kPa
310.6 K	0.0627 ± 0.0013 kPa
313.07 K	0.07495 ± 0.0015 kPa and 0.0749 ± 0.0015 kPa
315.54 K	0.08924 ± 0.0017 kPa
315.56 K	0.08934 ± 0.0017 kPa
318.03 K	0.1062 ± 0.002 kPa
320.52 K	0.1256 ± 0.0023 kPa

Settings	Normal melting temperature [°C]
[2], Crystal	10.2 ± 0.9

COC(=O)c1cccnc1 [3-pyridinecarboxylic acid methyl ester]
Settings	Molar enthalpy of transition or fusion [kcal/mol]
[1]	4.61 ± 0.167

vapor or sublimation pressure, [2]
Settings	Crystal	Liquid
273.23 K	0.000651 ± 9.6e-05 kPa and 0.000658 ± 9.6e-05 kPa	–
278.2 K	0.001228 ± 0.00011 kPa and 0.001214 ± 0.00011 kPa	–
283.18 K	0.002269 ± 0.00013 kPa	–
283.19 K	0.002282 ± 0.00013 kPa and 0.002271 ± 0.00013 kPa	–
288.16 K	0.00406 ± 0.00019 kPa and 0.004076 ± 0.00019 kPa	–
293.16 K	0.007304 ± 0.0003 kPa and 0.007318 ± 0.0003 kPa	–
298.14 K	0.0127 ± 0.00051 kPa	0.01819 ± 0.00059 kPa
298.15 K	–	0.01819 ± 0.00059 kPa
298.16 K	0.01269 ± 0.00051 kPa	–
303.13 K	–	0.02715 ± 0.00073 kPa and 0.02712 ± 0.00073 kPa
303.14 K	0.0216 ± 0.00065 kPa and 0.02159 ± 0.00065 kPa	–
305.12 K	–	0.03186 ± 0.0008 kPa
305.13 K	–	0.03188 ± 0.0008 kPa
307.11 K	–	0.03712 ± 0.00088 kPa and 0.03709 ± 0.00088 kPa
308.1 K	0.03586 ± 0.00087 kPa	–
308.11 K	0.03587 ± 0.00087 kPa	–
309.1 K	–	0.0431 ± 0.00098 kPa and 0.04306 ± 0.00098 kPa
310.6 K	0.04566 ± 0.001 kPa	–
310.61 K	0.04595 ± 0.001 kPa and 0.04557 ± 0.001 kPa	–
311.07 K	–	0.0502 ± 0.0011 kPa
311.08 K	–	0.05006 ± 0.0011 kPa
313.07 K	–	0.05817 ± 0.0012 kPa
313.08 K	–	0.05817 ± 0.0012 kPa
315.06 K	–	0.06722 ± 0.0014 kPa
315.07 K	–	0.06704 ± 0.0014 kPa
317.04 K	–	0.07707 ± 0.0015 kPa
317.05 K	–	0.07715 ± 0.0015 kPa
318.08 K	–	0.08317 ± 0.0016 kPa
318.11 K	–	0.0833 ± 0.0016 kPa
319.09 K	–	0.08886 ± 0.0017 kPa
321.08 K	–	0.102 ± 0.0019 kPa and 0.103 ± 0.0019 kPa
323.09 K	–	0.1177 ± 0.0021 kPa
324.06 K	–	0.1247 ± 0.0022 kPa and 0.1246 ± 0.0022 kPa

Settings	Normal melting temperature [°C]
[2], Crystal	39.5 ± 0.4
